Drawing on patent US20260199484A1, “PROTAC DEGRADERS OF MLLT1 AND/OR MLLT3” (DARK BLUE THERAPEUTICS LTD, priority 2024, published 2026), this text covers Dmax and DC50 for 1 compound.

Test [1] addresses T1, MLLT1 (Mus musculus, UniProt F6UGX7).
T1 construct: endogenous in cells; host or cells: NIH/3T3 (ATCC CRL-1658)
T1 sequence (F6UGX7 1-547): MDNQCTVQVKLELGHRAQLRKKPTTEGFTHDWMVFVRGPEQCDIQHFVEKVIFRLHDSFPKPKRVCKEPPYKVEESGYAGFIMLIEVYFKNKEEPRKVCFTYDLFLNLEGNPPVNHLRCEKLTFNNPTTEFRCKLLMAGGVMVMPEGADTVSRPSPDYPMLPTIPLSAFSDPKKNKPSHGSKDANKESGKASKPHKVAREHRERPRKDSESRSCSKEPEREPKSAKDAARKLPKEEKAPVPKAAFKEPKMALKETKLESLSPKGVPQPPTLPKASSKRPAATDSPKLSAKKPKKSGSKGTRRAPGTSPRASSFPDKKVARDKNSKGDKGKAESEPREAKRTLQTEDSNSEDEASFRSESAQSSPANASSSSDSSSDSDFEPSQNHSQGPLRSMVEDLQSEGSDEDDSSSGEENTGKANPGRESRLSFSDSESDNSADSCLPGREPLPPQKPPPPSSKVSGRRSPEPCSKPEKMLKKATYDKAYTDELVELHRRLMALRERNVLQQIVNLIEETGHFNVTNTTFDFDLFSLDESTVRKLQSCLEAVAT
Kind of test: MLLT1 degradation assay in NIH/3T3 cells (JESS, 5 h). The class given is cell-based. As for the experimental part:
MLLT1 degradation efficacy of compounds was tested in an automated chemiluminescent detection system (JESS, Cat #004-650). NIH/3T3 (#CRL-1658, ATCC) were seeded at a density of 0.5 million cells/well in a cell culture treated 6-well cell culture plate in 2 mL of complete medium (DMEM+10% FBS+1× Penicillin-Streptomycin) and incubated at 37° C., 5% CO2. The next day, 10 mM DMSO stocks were prepared, and cells were treated with eight concentrations of test compound, starting from 100 nM, 5-fold dilution, at a final DMSO concentration of 0.1% and incubated for 5 h at 37° C., 5% CO2. Post incubation, cells were washed with HBSS and lysed in 70 μL of RIPA buffer supplemented with Protease inhibitors (sc-24948; Santa Cruz). Protein estimation was done using BCA protein assay kit (23228; Pierce). […] Post run, data was analysed using “Compass for SW” software for chemiluminescent detection. […]
MLLT3 degradation efficacy of compounds was tested in an automated chemiluminescent detection system (JESS, Cat #004-650). […] Post run, data was analysed using “Compass for SW” software for chemiluminescent detection. […]

Test [2] has as its target T2, MLLT3 (Mus musculus, UniProt A2AM29).
T2 construct: endogenous in cells; host or cells: NIH/3T3 (ATCC CRL-1658)
T2 sequence (A2AM29 1-569): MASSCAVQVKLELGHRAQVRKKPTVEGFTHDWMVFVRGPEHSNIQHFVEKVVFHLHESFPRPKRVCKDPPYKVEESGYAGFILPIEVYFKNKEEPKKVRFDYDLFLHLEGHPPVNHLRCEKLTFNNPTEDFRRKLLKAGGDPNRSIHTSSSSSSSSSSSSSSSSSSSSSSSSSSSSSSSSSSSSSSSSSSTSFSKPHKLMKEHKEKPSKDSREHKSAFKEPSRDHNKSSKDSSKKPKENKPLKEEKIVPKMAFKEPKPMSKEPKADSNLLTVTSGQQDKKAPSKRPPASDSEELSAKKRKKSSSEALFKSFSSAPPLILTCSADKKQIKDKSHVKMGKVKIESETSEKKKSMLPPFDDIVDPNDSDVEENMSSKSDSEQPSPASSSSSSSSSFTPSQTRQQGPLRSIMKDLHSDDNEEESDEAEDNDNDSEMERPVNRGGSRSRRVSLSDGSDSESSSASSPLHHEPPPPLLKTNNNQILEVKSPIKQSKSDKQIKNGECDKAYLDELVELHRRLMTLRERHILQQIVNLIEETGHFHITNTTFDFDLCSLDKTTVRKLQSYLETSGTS
The experiment in a line: MLLT3 degradation assay in NIH/3T3 cells (JESS, 5 h). The test is classed as cell-based. The procedure: MLLT3 degradation efficacy of compounds was tested in an automated chemiluminescent detection system (JESS, Cat #004-650). NIH/3T3 (#CRL-1658, ATCC) were seeded at a density of 0.5 million cells/well in a cell culture treated 6-well cell culture plate in 2 mL of complete medium (DMEM+10% FBS+1× Penicillin-Streptomycin) and incubated at 37° C., 5% CO2. The next day, 10 mM DMSO stocks were prepared, and cells were treated with eight concentrations of test compounds, starting from 100 nM, 5-fold dilution, at a final DMSO concentration of 0.1% and incubated for 5 h at 37° C., 5% CO2. Post incubation, cells were washed with HBSS and lysed in 70 μL of RIPA buffer supplemented with Protease inhibitors (sc-24948; Santa Cruz). Later, protein estimation was done using BCA protein assay kit (23228; Pierce). 4 gg protein lysate (4 μL of 1 μg/μL lysate) was loaded into each well of the JESS cartridge (SM-W004; Bio-techne) and the JESS run was performed using 1:200 dilution of anti-mouse MLLT3 antibody (#47577; CST) and 1:800 dilution of anti-human GAPDH antibody (2118; Cell signaling technology) with anti-rabbit secondary detection module (DM-001; Bio-Techne). Post run, data was analysed using “Compass for SW” software for chemiluminescent detection. Peak fit was done using “dropped lines” method. […]

Each structure is given as a SMILES string.

One may read the DC50 as the concentration giving 50% degradation. Read a low DC50 as degradation at low concentration.

Consider `Cc1nn(CCCCCCCC#Cc2cccc3c2CN(C2CCC(=O)NC2=O)C3=O)c2cc(C(=O)Nc3cc4[nH]c([C@H]5CCCN5C)cc4cn3)ccc12` (mixture of isomers) [Example 1, 1-(9-(2-(2,6-dioxopiperidin-3-yl)-1-oxoisoindolin-4-yl)non-8-yn-1-yl)-3-methyl-N-(2-((R)-1-methylpyrrolidin-2-yl)-1H-pyrrolo[3,2-c]pyridin-6-yl)-1H-indazole-6-carboxamide], for which the Dmax came out at 90% in test [1] (NIH3T3, read-out: MLLT1 Dmax in NIH/3T3 cells) and 85% in test [2] (NIH3T3, maximum % degradation observed). Moreover, the half-maximal degradation concentration (DC50) in test [1] (NIH/3T3 cells, 5 h) was 1.4 nM; in test [2] it was 1.6 nM.
